In patent US7105529B2, “Substituted oxindole derivatives as protein tyrosine and as protein serine/threonine kinase inhibitors and compositions and methods of treating chemotherapy and radiation therapy side effects” (SmithKline Beecham Corporation, priority 1997, dated 2006) one finds IC50 data, which are given here for 3 compounds.

Assay type in all cases: cell-based
The test system of assay [1] is human diploid fibroblasts (HDF-3). The assay is described as follows: G1-S progression assay (BrdU incorporation). Conditions: read-out: G1/S Chkpt (IC50). The procedure: This assay is designed to determine the ability of compounds to inhibit progression of cells from G1 into S-phase. […] The protocol is as follows: • (1) Grow human diploid fibroblasts (HDF-3) in 100 mm tissue culture dish to confluency. (2) Plate 6–7×10^3 cells/well in a 96 well plate in 100 μl of DMEM. […] Dilute compound in DMEM containing DMSO and add 100 μl to each well so that the DMSO conc. is 0.6–0.8% in 200 μl final volume. (4) Two h after addition of compound, add 20 μl of 100 μM Br dU (final conc. 10 μM) Make 100 μM solution in DMEM from 10 mM stock solution. (5) After 4 h, add 200 μl PBS to each well and remove the contents of the wells by inverting the plate and soaking on to the paper towel. Repeat the washing step three times, with 400 ul PBS each time. (6) Fix the cells and denature the DNA by adding 200 μl fixation/denaturation solution to each well for 30–40 min. (7) Remove the fixation/denaturation solution by tapping the plate on the paper towel and add 75 μl of anti BrdU peroxidase antibody to each well. (dilute the antibody to 0.1 U/mL from 15 U/mL stock in PBS containing 1% BSA, Fraction V). Incubate the plate O/N at 4° C. (8) Remove the antibody solution and wash wells four times with 400 μl of PBS. Let the wash solution stay for 3–4 min during each wash. (9) Drain the wells and add 100 μl of chemiluminiscence Elisa reagent (Prepare the reagent 15–20 min before use to bring it to rt by mixing 100 parts of reagent A with 1 part of reagent B). (10) Read the plate in a luminometer. Take 2–3 readings within 6–7 min. Perform the following controls: [table] Deoxybromouridine (BrdU), anti BrdU peroxidase antibodies, fixation/denaturation solution, chemiluminiscence reagent and BSA Fraction V, were obtained from Boehringer Mannheim. The 96-well white plate with clear bottom were purchased from Corning Costar Corporation. Dulbecco's Modified Eagle Medium containing high glucose, L-glutamine and pyridoxine HCl was obtained from GIBCO BRL.
On the technique in general: Dividing cells build labelled thymidine or BrdU into new DNA.

Assay [2] relates to RKO (human colon adenocarcinoma cell line). The assay is described as follows: MTT assay, RKO. The following applies: 72 h. The procedure: Compounds are tested for their ability to inhibit cell proliferation and cell viability. The metabolic conversion of 3-(4,5-dimethylthiazol-2-yl)-2,5-diphenyltetrazolium bromide (MTT, Sigma #M2128) to a reduced form is a commonly used measure of cellular viability. Following is the procedure: Cells are maintained in 75 cm^2 tissue culture flasks until ready for use. The cells are grown and plated for the assay in Dulbecco's modified Eagle's media (DMEM) containing 10% fetal bovine serum. For example, the following cell lines can be used: a) human foreskin fibroblasts (HFF); b) HT29 (human colon carcinoma cell line); c) MDA-MB468 (human breast carcinoma cell line); d) RKO (human colon adenocarcinoma cell line); e) SW620 (human colon carcinoma cell line); f A549 (human lung carcinoma cell line); and g) MIA PACA (human pancreatic carcinoma cell line). Cells are maintained at 37° C. in 10% CO2, 90% humidified air. Cells are plated in 96-well tissue culture plates at the densities listed below. 100 μL of cell suspension is added to each well of the 96-well plate except the top row of the plate which contains no cells and serves as a reference for the spectrophotometer. [table] Cells are incubated overnight in DMEM containing 10% fetal bovine serum at 37° C. in 10% CO2, 90% humidified air prior to dosing. […] Compounds with solubilities of less than 30 μM are dosed at the highest soluble concentration. Stock solutions of compounds are made in 100% dimethyl sulfoxide (DMSO). Stock solutions are diluted in DMEM containing 100 μg/ml gentamicin and 0.3 to 0.6% DMSO at the twice the highest concentration to be placed on the cells. If compounds have been dissolved in DMSO the final concentration of DMSO on the cells is kept below 0.3%. Three-fold serial dilutions are performed on each compound to prepare 10 concentrations of the compound for dosing. 100 μl of diluted compound is added to the 100 μl of media currently on the dish. […] Quantitation of metabolic reduction of MTT in each plate is performed by reading optical density at 570 nm wavelength on a Molecular Devices UVmax microplate reader. […]
On the technique in general: Tetrazolium dyes change colour on reduction, which living cells bring about.

Assay [3] has as its system HDF normal diploid fibroblast cells. Briefly: MTT assay, HDF. Conditions: 72 h. Here is the method:
Compounds are tested for their ability to inhibit cell proliferation and cell viability. The metabolic conversion of 3-(4,5-dimethylthiazol-2-yl)-2,5-diphenyltetrazolium bromide (MTT, Sigma #M2128) to a reduced form is a commonly used measure of cellular viability. Following is the procedure: Cells are maintained in 75 cm^2 tissue culture flasks until ready for use. The cells are grown and plated for the assay in Dulbecco's modified Eagle's media (DMEM) containing 10% fetal bovine serum. For example, the following cell lines can be used: a) human foreskin fibroblasts (HFF); b) HT29 (human colon carcinoma cell line); c) MDA-MB468 (human breast carcinoma cell line); d) RKO (human colon adenocarcinoma cell line); e) SW620 (human colon carcinoma cell line); f A549 (human lung carcinoma cell line); and g) MIA PACA (human pancreatic carcinoma cell line). Cells are maintained at 37° C. in 10% CO2, 90% humidified air. Cells are plated in 96-well tissue culture plates at the densities listed below. 100 μL of cell suspension is added to each well of the 96-well plate except the top row of the plate which contains no cells and serves as a reference for the spectrophotometer. [table] Cells are incubated overnight in DMEM containing 10% fetal bovine serum at 37° C. in 10% CO2, 90% humidified air prior to dosing. […] Compounds with solubilities of less than 30 μM are dosed at the highest soluble concentration. Stock solutions of compounds are made in 100% dimethyl sulfoxide (DMSO). Stock solutions are diluted in DMEM containing 100 μg/ml gentamicin and 0.3 to 0.6% DMSO at the twice the highest concentration to be placed on the cells. If compounds have been dissolved in DMSO the final concentration of DMSO on the cells is kept below 0.3%. Three-fold serial dilutions are performed on each compound to prepare 10 concentrations of the compound for dosing. 100 μl of diluted compound is added to the 100 μl of media currently on the dish. For each concentration of compound, 2–4 replicate wells are prepared. Cells are returned to incubator and allowed to proliferate in the presence of compound for 72 h before addition of MTT. […] After 4 h incubation the media, compound and MTT mixture is aspirated from the plates and 100 μl of 100% DMSO is added to each well in addition to 25 μl of Sorenson's Buffer (0.1M glycine, 0.1M NaCl, pH 10.5). Quantitation of metabolic reduction of MTT in each plate is performed by reading optical density at 570 nm wavelength on a Molecular Devices UVmax microplate reader. […] HDF are normal diploid fibroblast cells. RKO are colon adenocarcinoma cells and MES/SA are ovarian carcinoma cells.

Like-named read-outs stand apart in the source and are kept apart here.

Consider `COC(=O)c1ccc2c(c1)/C(=C/Nc1ccc(S(N)(=O)=O)cc1)C(=O)N2` [Example 27], for which the IC50 is 1100 to 5000 nM in assay [1] (Homo sapiens, Fibroblast); 1100 to 5000 nM in assay [2] (Homo sapiens); 1100 to 5000 nM in assay [3] (Fibroblast).
For `NS(=O)(=O)c1ccc(NN=C2C(=O)Nc3ccc(-c4cnco4)cc32)cc1` [Example 36], the IC50 fell in the range of 600 to 1000 nM in assay [1] (Homo sapiens, Fibroblast); 600 to 1000 nM in assay [2] (Homo sapiens); 1100 to 5000 nM in assay [3] (Fibroblast).
In the case of `O=C1Nc2ccc3ncsc3c2C1=CNc1ccc(S(=O)(=O)NCc2ccncc2)cc1` [Example 104, 4-[(7-Oxo-6,7-dihydro-1-thia-3,6-diaza-as-indacen-8-ylidenemethyl)amino]-N-pyridinyl-4-yl-methyl benzenesulfonamide], the IC50 in assay [1], in assay [2] and in assay [3] was 1100 to 5000 nM each time.
